Experimental data reported in patent US20110152089A1, “HERBICIDAL COMPOSITIONS COMPRISING FLUFENACET” (Bayer CropScience AG, priority 2009, published 2011).

Legend:
[1] = tested on: VIOAR; test: Activity with different soil types, greenhouse (Table 5); assay type: in vivo, Viola arvensis; conditions: g of AS/ha: (A) 90, (B) 300, (C) 140, (A)+(B)+(C) 90 + 300 + 140; for activity VIOAR IU soil: IU soil (loamy silt standard field soil); for activity V18 VIOAR IU/EC73 soil: IU/EC73 soil (heavy soil, higher organic substance)
Procedure: (§1) In the standard design of the test, seeds of various broad-leaved weed and weed grass biotypes (origins) were sown in a 8-13 cm diameter pot filled with natural soil of a standard field soil (loamy silt; non-sterile) and covered with a covering soil layer of about 1 cm. The pots were then cultivated in a greenhouse (12-16 h of light, temperature day 20-22° C., night 15-18° C.) until the time of application. The pots were treated on a laboratory track sprayer with spray liquors comprising the compositions according to the invention, mixtures of the prior art or components used individually. Application of the active compounds or active compound combinations formulated as WG, WP, EC or otherwise was carried out at the appropriate growth stages of the plants. The application rate for the spray application was 100-600 l of water/ha. After the treatment, the plants were returned to the greenhouses.
(§2) About 3 weeks after the application, the soil action or/and foliar action was assessed visually according to a scale of 0-100% in comparison to an untreated comparative group: 0%=no noticeable effect compared to the untreated comparative group; 100%=full effect compared to the untreated comparative group.
(§3) (notes: the term “seeds” also includes vegetative propagation forms such as, for example, rhizome pieces; abbreviations used: h light=hours of illumination, g of AS/ha=gram of active substance per hectare, l/ha=liter per hectare, S=sensitive, R=resistant) • 1. Pre-emergence action against weeds: seeds of various broad-leaved weed and weed grass biotypes (origins) were sown in a 8-13 cm diameter pot filled with natural soil of a standard field soil (loamy silt; non-sterile) and covered with a covering soil layer of about 1 cm. The pots were then cultivated in a greenhouse (12-16 h of light, temperature day 20-22° C., night 15-18° C.) until the time of application. The pots were treated at the BBCH stage 00-10 of the seeds/plants on a laboratory track sprayer with spray liquors comprising the compositions according to the invention, mixtures or components used individually, as WG, WP, EC or other formulations. The application rate for the spray application was 100-600 l of water/ha. After the treatment, the plants were returned to the greenhouses and, when required, treated with fertilizer and watered. • 2. Post-emergence action against weeds: seeds of various broad-leaved weed and weed grass biotypes (origins) were sown in a 8-13 cm diameter pot filled with natural soil of a standard field soil (loamy silt; non-sterile) and covered with a covering soil layer of about 1 cm. The pots were then cultivated in a greenhouse (12-16 h of light, temperature day 20-22° C., night 15-18° C.) until the time of application. The pots were treated at various BBCH stages between 11-25 of the seeds/plants, i.e. generally between two to three weeks after the start of the cultivation, on a laboratory track sprayer with spray liquors comprising the compositions according to the invention, mixtures or components used individually, as WG, WP, EC or other formulations. The application rate for the spray application was 100-600 l of water/ha. After the treatment, the plants were returned to the greenhouses and, when required, treated with fertilizer and watered. • 3. Pre-emergence action against weeds with and without incorporation of active compound: seeds of various broad-leaved weed and weed grass biotypes (origins) were sown in a 8-13 cm diameter pot filled with natural soil of a standard field soil (loamy silt; non-sterile). […]

[2] = tested on: MATCH; test: Different sowing depths, PE application, greenhouse (Table 7); assay type: in vivo, Matricaria chamomilla; conditions: for activity MATCH 5 mm: sowing depth 5 mm; for activity MATCH 20 mm: sowing depth 20 mm
Procedure: as §1, §2, §3

[3] = tested on: VIOAR; test: PE soil application vs incorporation into the soil, greenhouse (Table 1); assay type: in vivo, Viola arvensis; conditions: g of AS/ha: (A) 90, (B) 300, (C) 70, (A)+(B)+(C) 90 + 300 + 70, visual, about 3 weeks after application
Procedure: as §1, §2
(§4) (notes: the term “seeds” also includes vegetative propagation forms such as, for example, rhizome pieces; abbreviations used: h light=hours of illumination, g of AS/ha=gram of active substance per hectare, l/ha=liter per hectare, S=sensitive, R=resistant) • 1. Pre-emergence action against weeds: seeds of various broad-leaved weed and weed grass biotypes (origins) were sown in a 8-13 cm diameter pot filled with natural soil of a standard field soil (loamy silt; non-sterile) and covered with a covering soil layer of about 1 cm. The pots were then cultivated in a greenhouse (12-16 h of light, temperature day 20-22° C., night 15-18° C.) until the time of application. The pots were treated at the BBCH stage 00-10 of the seeds/plants on a laboratory track sprayer with spray liquors comprising the compositions according to the invention, mixtures or components used individually, as WG, WP, EC or other formulations. The application rate for the spray application was 100-600 l of water/ha. After the treatment, the plants were returned to the greenhouses and, when required, treated with fertilizer and watered. • 2. Post-emergence action against weeds: seeds of various broad-leaved weed and weed grass biotypes (origins) were sown in a 8-13 cm diameter pot filled with natural soil of a standard field soil (loamy silt; non-sterile) and covered with a covering soil layer of about 1 cm. The pots were then cultivated in a greenhouse (12-16 h of light, temperature day 20-22° C., night 15-18° C.) until the time of application. […]

[4] = tested on: MATCH; test: Different soil pH, PE application, greenhouse (Table 8); assay type: in vivo, Matricaria chamomilla; conditions: for activity MATCH pH 7.4: soil pH 7.4, g of AS/ha: (A) 90, (B) 300, (C) 140, (A)+(B)+(C) 90 + 300 + 140; for activity MATCH pH 8.4: soil pH 8.4, g of AS/ha: (A) 90, (B) 300, (C) 140, (A)+(B)+(C) 90 + 300 + 140
Procedure: as §1, §2, §3

[5] = tested on: STEME; test: Resistant biotypes, PE application, greenhouse (Table 6); assay type: in vivo, Stellaria media; conditions: g of AS/ha: (A) 90, (B) 300, (C) 140, (A)+(B)+(C) 120 + 600 + 140, iodosulfuron 10; for activity STEME resistant: resistant biotype; for activity STEME sensitive: sensitive biotype
Procedure: as §1, §2, §3

[6] = tested on: STEME; test: PE soil application vs incorporation into the soil, greenhouse (Table 1); assay type: in vivo, Stellaria media; conditions: g of AS/ha: (A) 90, (B) 300, (C) 70, (A)+(B)+(C) 90 + 300 + 70, visual, about 3 weeks after application
Procedure: as §1, §2, §3

[7] = tested on: TRZAW; test: Different soil pH, PE application, crop selectivity, greenhouse (Table 8); assay type: in vivo, Triticum aestivum, winter wheat; conditions: for activity TRZAW pH 7.4 (crop plant): soil pH 7.4, g of AS/ha: (A) 90, (B) 300, (C) 140, (A)+(B)+(C) 90 + 300 + 140; for activity TRZAW pH 8.4 (crop plant): soil pH 8.4, g of AS/ha: (A) 90, (B) 300, (C) 140, (A)+(B)+(C) 90 + 300 + 140
Procedure: as §1, §2, §3

[8] = tested on: AVEFA; test: PE application with different irrigation, greenhouse (Table 4); assay type: in vivo, Avena fatua; conditions: g of AS/ha: (A) 90, (B) 300, (C) 140, (A)+(B)+(C) 90 + 300 + 140
Procedure: as §1, §2, §3

[9] = tested on: AVEFA; test: PE application vs pre-sowing application, greenhouse (Table 3); assay type: in vivo, Avena fatua; conditions: g of AS/ha: (A) 90, (B) 300, (C) 140, (A)+(B)+(C) 90 + 300 + 140
Procedure: as §1, §2, §4

[10] = tested on: HORVS; test: PE soil application vs incorporation into the soil, crop selectivity, greenhouse (Table 1); assay type: in vivo, Hordeum vulgare, summer barley; conditions: g of AS/ha: (A) 90, (B) 300, (C) 70, (A)+(B)+(C) 90 + 300 + 70, visual, about 3 weeks after application
Procedure: as §1, §2, §3

[11] = tested on: STEME; test: Activity with different soil types, greenhouse (Table 5); assay type: in vivo, Stellaria media; conditions: g of AS/ha: (A) 90, (B) 300, (C) 140, (A)+(B)+(C) 90 + 300 + 140; for activity STEME IU soil: IU soil (loamy silt standard field soil); for activity STEME IU/EC73 soil: IU/EC73 soil (heavy soil, higher organic substance)
Procedure: as §1, §2, §3

[12] = tested on: HORVS; test: PE application vs pre-sowing application, crop selectivity, greenhouse (Table 3); assay type: in vivo, Hordeum vulgare, summer barley; conditions: g of AS/ha: (A) 90, (B) 300, (C) 140, (A)+(B)+(C) 90 + 300 + 140
Procedure: as §1, §2, §3

[13] = tested on: LOLSS; test: Resistant biotypes, PE application, greenhouse (Table 6); assay type: in vivo, Lolium species; conditions: g of AS/ha: (A) 90, (B) 300, (C) 140, (A)+(B)+(C) 120 + 600 + 140, iodosulfuron 10; for activity LOLSS resistant: resistant (EMR) biotype; for activity LOLSS sensitive: sensitive biotype
Procedure: as §1, §2, §4

[14] = tested on: LOLPE; test: PE application vs pre-sowing application, greenhouse (Table 3); assay type: in vivo, Lolium perenne; conditions: g of AS/ha: (A) 90, (B) 300, (C) 140, (A)+(B)+(C) 90 + 300 + 140
Procedure: as §1, §2, §4

[15] = g of AS/ha: (A) 90, (B) 300, (C) 140, (A)+(B)+(C) 90 + 300 + 140
[16] = application 7 days prior to sowing
[17] = g of AS/ha: (A) 90, (B) 300, (C) 140, (A)+(B)+(C) 90 + 300 + 140, listed as trifluralin

Row | Compound | activity VIOAR IU soil [1] | activity V18 VIOAR IU/EC73 soil [1] | activity MATCH 5 mm [2, 15] | activity MATCH 20 mm [2, 15] | activity VIOAR ([3]; PE application) | activity VIOAR ([3]; incorporation into the soil) | activity MATCH pH 7.4 [4] | activity MATCH pH 8.4 [4] | activity STEME resistant [5] | activity STEME sensitive [5] | activity STEME ([6]; PE application) | activity STEME ([6]; incorporation into the soil) | activity TRZAW pH 7.4 (crop plant) [7] | activity TRZAW pH 8.4 (crop plant) [7] | activity AVEFA ([8]; irrigation from above) | activity AVEFA ([8]; irrigation from below) | activity AVEFA ([9]; PE application) | activity AVEFA [9, 16] | activity HORVS (crop plant) ([10]; PE application) | activity HORVS (crop plant) ([10]; incorporation into the soil) | other results
1 | CSc1nnc(C(C)(C)C)c(=O)n1N [(C) metribuzin, 4-amino-6-(1,1-dimethyl-ethyl)-3-(methylthio)-1,2,4-triazin-5-(4H)-one] | 50% | 0% | 100% | 70% | 0% | 10% | 100% | 98% | 98% | 100% | 75% | 0% | 70% | 80% | 30% | 30% | 70% | 0% | 30% | 70% | activity STEME IU soil [11]: 75%; activity STEME IU/EC73 soil [11]: 5%; activity HORVS (crop plant) ([12]; PE application): 30%; activity HORVS (crop plant) [12, 16]: 20%; activity LOLSS resistant [13]: 70%; activity LOLSS sensitive [13]: 70%; activity LOLPE ([14]; PE application): 20%; activity LOLPE [14, 16]: 80%
2 | CCCN(CCC)c1c([N+](=O)[O-])cc(C(F)(F)F)cc1[N+](=O)[O-] [(B) trifluralin, 2,6-dinitro-N,N-dipropyl-4-(trifluoromethyl)benzenamine] | 77% | 0% | 0% | 30% | 50% | 0% | 0% | 0% | 20% | 20% | 10% | 70% | 0% | 0% | 25% | 38% | 0% | 60% | 0% | 35% | activity MATCH 5 mm [2, 17]: 100%; activity MATCH 20 mm [2, 17]: 70%; activity STEME IU soil [11]: 50%; activity STEME IU/EC73 soil [11]: 5%; activity HORVS (crop plant) ([12]; PE application): 0%; activity HORVS (crop plant) [12, 16]: 20%; activity LOLSS resistant [13]: 83%; activity LOLSS sensitive [13]: 98%; activity LOLPE ([14]; PE application): 90%; activity LOLPE [14, 16]: 0%
